From patent publication US20110190249A1, “THERAPEUTIC METHODS AND USES OF SAPOGENINS AND THEIR DERIVATIVES” (PHYTOPHARM PLC, priority 2002, published 2011)
Marks after values point to notes of the source that are not given here.

Key:
aged Sprague-Dawley rats = assay: Y-maze learning and memory test in aged rats; format: in vivo, rat; details: 18 mg kg−1 day−1 oral in food, 3 months
Description: (§1) Aged Sprague-Dawley rats aged were divided into different groups, one control and groups treated for 2-3 months with either sarsasapogenin, episarsasapogenin cathylate or smilagenin (18 mg kg^−1 day^−1, n=10). A control group (n=14) of untreated young rats was also included in the study. The daily dose of drug was mixed in a minimum amount of food and was administered every morning separately to each rat.
A Y-maze apparatus was used for the learning and memory test. On the floor of each arm of the Y-maze is an array of copper rods to which electric current is applied whenever needed, with adjustable voltage. Each arm is 45 cm long and has a 15 W lamp at the end, which is turned on when needed. After 3 months drug administration, each rat was trained for 7 consecutive days, as follows. For each training session, the rat was put into one arm of the Y-maze, after two minutes rest, an electrical current was applied to the copper rods and the lamp of the clockwise arm was illuminated to indicate the non-stimulation area. If the rat went into that arm, one correct response was recorded, otherwise, one wrong response was recorded: This stimulation-response test was repeated 20 times each day, with a pause of 5 sec between each two consecutive tests. The number of correct responses following the twenty tests on the seventh day was used to express learning ability, (the higher the number the better the learning ability). The rats were then left resting for 30 days and the procedure was repeated once more. The number of correct responses of the 20 tests after the 30 day rest period was used to represent the memory ability

BDNF = BDNF levels in aged rats; format: in vivo, rat; details: aged rats treated 3 months; aged untreated 1.205±0.219, young 1.647±0.277
Description: as §1

[1] = tested on: rat primary cortical neurones; assay: Neurite outgrowth in rat primary cortical neurones; format: cell-based; details: for Number of neurones displaying neurites, Mean ± s.e.m (%): control 47 ± 2; for Neurite length measured using optical micrometry, Mean ± s.e.m (%): control 100 ± 4
From the text: Neurodegenerative disorders are characterised by a progressive loss of neurones and degradation of neuronal processes (neurites). Agents that induce neurite outgrowth may promote the formation of new connections between neurones and ameliorate the symptoms of neurodegenerative conditions (Katzman et al, Faseb J., 5, 278-286, 1991).

dopamine (D) 1 receptor = assay: Dopamine D1 receptor density in aged rats; format: in vivo, rat; details: aged rats treated 3 months; aged untreated 129.2±36.8, young 157.5±33.2
Description: as §1
(§2) By contrast, smilagenin and sarsasapogenin treatment in aged rats for 3 months restored the D1 and D2 receptor density (smilagenin 177±10.9; 217±45.7 fmol/mg protein; sarsasapogenin 172.0±44.0; 206.4±60.5 respectively).

[2] = tested on: rat primary spinal motor neurones; assay: Glutamate-induced neurodegeneration in spinal motor neurones (LDH); format: cell-based; details: control 100 ± 1
Description: The objective of this study was to examine the effects of sarsasapogenin and smilagenin on the survival of rat primary spinal motor neurones exposed to glutamate, which is known to induce neurodegeneration in this model of motor neurodegeneration.
Rat motor neurones were prepared according to the method described by (Martinou et al, Neuron, 8, 737-744, 1992). On day 10, medium was removed and the cultures were exposed to glutamate (4 microM) for 10 min at 37° C. in defined medium. After the glutamate exposure, cultures were washed with Dulbecco modified Eagle medium at 37° C. then placed in fresh culture medium containing test compounds. After 48 h, the extent of spinal motor neurone degeneration was determined by measuring the amount of lactate dehydrogenase (LDH) released into the culture medium as above.

[3] = tested on: rat mesencephalic dopaminergic neurones; assay: Pre-treatment of dopaminergic neurones before MPP+ exposure (neuronal survival); format: cell-based; details: pre-treatment 30 nM; MPP+ 2 μM; MPP+ alone 55 ± 3
From the text: Smilagenin and sarsasapogenin prevent the neurodegeneration caused by exposure to the neurotoxin, 1-methyl-4-phenylpyridinium (MPP^+) in rat mesencephalic dopaminergic neurones; a model of Parkinson's disease in vitro.
Glial cell line-derived neurotrophic factor (GDNF) and brain-derived neurotrophic factor (BDNF), molecules that are involved in neuronal growth, were used as positive controls.

dopamine (D) 2 receptor = assay: Dopamine D2 receptor density in aged rats; format: in vivo, rat; details: aged rats treated 3 months; aged untreated 153.8±40.5, young 200.6±50.9
Description: as §1, §2

[4] = tested on: muscarinic acetylcholine receptor; assay: Brain muscarinic acetylcholine receptor density in aged rats (dual-site competitive ligand binding); format: in vivo, rat; details: 18 mg kg−1 day−1 oral, 2-3 months
Description: as §1
Muscarinic acetylcholine receptor density in the brain was measured. Tissue was prepared as follows: brains were removed quickly after decapitation, frozen in dry ice, and transferred to a freezer. The brains were homogenised and the pellet was finally suspended in buffer.
The dual-site competitive ligand binding assay was used to measure muscarinic acetylcholine receptor density.

[5] = tested on: rat primary cortical neurones; assay: Reversal of glutamate-induced neurodegeneration (LDH), treatment after glutamate exposure; format: cell-based; details: LDH after 24 h, control = 100
Description: (§3) Neuronal cell survival was evaluated by measuring lactate dehydrogenase (LDH) activity released in the media 24 h after test compound treatment or glutamate+test compound exposure, using the CytoTox 96 non-radioactive kit and quantitated by measuring wavelength absorbance at 450 nm.
As above mentioned, exposure of rat primary cortical cultures to glutamate (100 μM; 10 min) caused an increase in lactate dehydrogenase (LDH) activity measured after 24 h, indicating a significant neurodegeneration.

[6] = tested on: progressive motor neuropathy (pmn) mice; assay: Survival and behaviour of pmn mice (Charcot-Marie-Tooth model); format: in vivo; details: pmn mouse
From the text: Amyotrophic lateral sclerosis (ALS) is a progressive fatal neurodegenerative disorder that causes motor neurone degeneration, […], paralysis and death. The cause of this disease is heterogeneous: mutations in the Cu/Zn superoxide dismutase (SOD-1) gene is responsible for some forms of human ALS. Animal models of this disease include the SOD-1 transgenic mice over-expressing SOD-1 gene and the progressive motor neuropathy (pmn, a model of Charcot-Marie-Tooth) mice.

[7] = tested on: rat mesencephalic dopaminergic neurones; assay: Treatment of dopaminergic neurones after MPP+ exposure (survival, neurites); format: cell-based; details: MPP+ 2 μM
From the text: Smilagenin and sarsasapogenin also reverse the neurodegeneration caused by exposure to the neurotoxin 1-methyl-4-phenylpyridinium (MPP^+) in rat mesencephalic dopaminergic neurones; a model of Parkinson's disease in vitro.
Glial cell line-derived neurotrophic factor (GDNF) and brain-derived neurotrophic factor (BDNF), molecules that are involved in neuronal growth, and 17β-oestradiol were used as positive controls. Treatment with smilagenin and sarsasapogenin produced a significant increase in the neuronal survival compared to neurones exposed to MPP^+ alone (Table 8).
Exposure to MPP^+ caused not only a significant decrease in dopaminergic number but also in the percentage of neurites.

[8] = tested on: rat primary cortical neurones; assay: Prevention of glutamate-induced neurodegeneration (LDH release), pre-treatment; format: cell-based; details: 30 nM, given 24 h before glutamate; LDH 24 h after glutamate; control = 100
Description: The objective of this study was to examine the effects of sarsasapogenin, episarsasapogenin cathylate, episarsasapogenin, epismilagenin and smilagenin on the survival of rat primary cortical neurones exposed to glutamate, which is known to induce neuro degeneration.
Rat cortical neurones were cultured for 10 days; at day 10 the medium was changed to a serum-free defined medium. On day 12, 24 hours before glutamate exposure, cultures were washed and medium was replaced with fresh medium containing positive control (β-oestradiol), test compounds (sarsasapogenin, episarsasapogenin cathylate, episarsasapogenin, epismilagenin and smilagenin) or vehicle control (DMSO, 0.25%) or diosgenin as negative control.
On day 13, cultures were exposed to glutamate. After the incubation period, the cultures were washed with and placed in fresh medium, supplemented with relevant compounds or vehicle to evaluate their protective effects, 24 h after glutamate exposure.
as §3

[9] = tested on: muscarinic acetylcholine receptor; assay: Brain M receptor density (3H-QNB) in amyloid β + ibotenic acid rat model; format: in vivo; details: 18 mg/kg/day gastric tube, two months; model 713 ± 48, control 859 ± 101
Description: (§4) An in vivo model of Alzheimer's disease was used to model neurodegeneration. In this model the neurotoxic agents (amyloid β and ibotenic acid) are injected into the brain of the rat. This leads to neuronal loss, receptor loss and cognitive impairment. […] In addition the co-injection of amyloid β with a small amount of ibotenic acid into the rat hippocampus synergistically produces neuronal loss with infiltration of glial cells not only adjacent but also far from the injected site (Morimoto et al., 1998: Neuroscience, 84, 479-487).
(§5) Our studies used the method of Morimoto (Morimoto et al., 1998: Neuroscience, 84, 479-487) with some modifications (unilateral instead of bilateral injection). Three months old, Sprague Dawley rats, were randomly divided into different groups. Injection of amyloid β1-40 and ibotenic acid (both from Sigma) was accomplished by means of a stereotaxic instrument (Stoelting Co.) and the coordinates were AP=−0.5 mm […], L=−2.8 mm […], H=−7.0 mm (ventral to dura). The dose for each rat was amyloid β1-40 (4 μg) and ibotenic acid (1 μg) in 1 μl of saline. The injection was completed in 20 min, and the needle was withdrawn 10 min later. Then the skin was sutured.
(§6) The 8 groups were: • Operated control injected with normal saline (control) • Model (control injected with amyloid β+ibotenic acid) • Model+Episarsasapogenin cathylate (18 mg/kg/day)* • Model+Sarsasapogenin cathylate (18 mg/kg/day)* • Model+Episarsasapogenin ethylsuccinate (18 mg/kg/day) (comparison) • Model+Episarsasapogenin (18 mg/kg/day)* • Model+Epismilagenin (18 mg/kg/day)* • Model+Diosgenin (i.e. negative control, 18 mg/kg/day)
(§7) Episarsasapogenin cathylate, sarsasapogenin cathylate, episarsasapogenin ethylsuccinate (comparison compound), episarsasapogenin, epismilagenin and diosgenin (all at a dosage of 18 mg/kg/day) were administered to animals as stable suspensions in CMC—Na (0.5%) once daily through a gastric tube. The control and the model group were given the same volume of CMC—Na (0.5%) once daily. The drugs and vehicles were given for a period of two months, starting 20 days before operation.
Muscarinic acetylcholine receptor density was assessed. The brain samples were homogenised, centrifuged, and the pellet of centrifugation at 27000×g was re-homogenised and used for measurement. The concentration of ^3H-QNB was chosen at the saturation range. After incubation and separation, the bound portion was measured by liquid scintillation counter.

[10] = tested on: Sprague Dawley rats injected with amyloid β1-40 and ibotenic acid; assay: Step-through test in amyloid β + ibotenic acid rat model; format: in vivo; details: 18 mg/kg/day gastric tube, two months; errors in 5 min; model 4.00 ± 2.40, control 0.60 ± 0.70
Description: as §4, §5, §6, §7
Step-Through Test: learning and memory. The effect of test compounds on learning and memory was assessed using the step-through test. A 60×15×15 cm box, divided into 2 equally sized rooms, one dark room with copper rod base, which was electrically charged (40 V ac) when in use, while the other was a light room but not electrically charged. Between the two rooms there is an opening (hole) for the rat to go through. The experiment is carried out for each rat on two consecutive days. The first day is for training; when the rat is adapted in the box for the first 3 min, then put in the light room, with its back toward the hole, and the copper rods of the dark room are charged for 5 min. The second day is for testing, when the number of crosses in 5 min are recorded. Improvements in memory are signalled by a reduction in the number of crosses.

C[C@H]1CC[C@@]2(OC1)O[C@H]1C[C@H]3[C@@H]4CC[C@@H]5C[C@@H](O)CC[C@]5(C)[C@H]4CC[C@]3(C)[C@H]1[C@@H]2C [sarsasapogenin]
Learning and memory ability (Y-maze) (aged Sprague-Dawley rats): restored the learning and memory ability | BDNF levels (BDNF): 1.410±0.232 ng/g tissue | Number of neurones displaying neurites, Mean ± s.e.m (%) ([1]; 0.3 pM): 55 ± 2% | Neurite length measured using optical micrometry, Mean ± s.e.m (%) ([1]; 0.3 pM): 177 ± 5% | Number of neurones displaying neurites, Mean ± s.e.m (%) ([1]; 3 pM): 61 ± 1% | Neurite length measured using optical micrometry, Mean ± s.e.m (%) ([1]; 3 pM): 197 ± 5% | Number of neurones displaying neurites, Mean ± s.e.m (%) ([1]; 30 pM): 62 ± 2% | Neurite length measured using optical micrometry, Mean ± s.e.m (%) ([1]; 30 pM): 211 ± 6% | D1 receptor density (dopamine (D) 1 receptor): 172.0±44.0 fmol/mg protein | Glutamate-induced neurodegeneration in spinal motor neurones, Mean ± s.e.m (%) ([2]; 0.03 nM for 48 h after glutamate 4 microM 10 min): 123 ± 2% | Glutamate-induced neurodegeneration in spinal motor neurones, Mean ± s.e.m (%) ([2]; 3 nM for 48 h after glutamate 4 microM 10 min): 137 ± 1% | Glutamate-induced neurodegeneration in spinal motor neurones, Mean ± s.e.m (%) ([2]; 300 nM for 48 h after glutamate 4 microM 10 min): 136 ± 6% | Dopaminergic neurones after MPP+ exposure (survival), Mean ± s.e.m (%) [3]: 89 ± 3% | D2 receptor density (dopamine (D) 2 receptor): 206.4±60.5 fmol/mg protein | Muscarinic acetylcholine receptor density in brain [4]: significantly restored | Cortical neurones previously exposed to glutamate, Mean ± s.e.m (%) ([5]; 3 nM after glutamate 100 μM 10 min): 101 ± 3% | Cortical neurones previously exposed to glutamate, Mean ± s.e.m (%) ([5]; 30 nM after glutamate 100 μM 10 min): 112 ± 1% | Behavioural deficits ([6]; oral administration): improve the behavioural deficits | Lifespan (survival) ([6]; oral administration (FIG. 6)): increase the lifespan | Percentage of neurites in dopaminergic neurones after MPP+ exposure, Mean ± s.e.m (%) ([7]; 0.03 nM, control 41 ± 4, MPP+ alone 27 ± 5): 43 ± 4% | Dopaminergic neurones after MPP+ exposure (survival), Mean ± s.e.m (%) ([7]; treatment 0.03 nM, MPP+ alone 76 ± 4): 112 ± 6% | Prevention of glutamate-induced neurodegeneration, Mean ± s.e.m (%) [8]: 79 ± 3%

CCOC(=O)O[C@@H]1CC[C@@]2(C)[C@H](CC[C@@H]3[C@@H]2CC[C@]2(C)[C@@H]4[C@H](C[C@@H]32)O[C@]2(CC[C@H](C)CO2)[C@H]4C)C1 [episarsasapogenin cathylate]
M receptor density [9]: 877 ± 89* fmol/mg/protein | Learning and memory ability (Y-maze) (aged Sprague-Dawley rats): restored the learning and memory ability | Learning and memory Step through test Error No [10]: 1.36 ± 0.92* | Muscarinic acetylcholine receptor density in brain [4]: significantly restored | Prevention of glutamate-induced neurodegeneration, Mean ± s.e.m (%) [8]: 74 ± 3%
